Reference: patent publication US20160257697A1, “THIOPHENE-SUBSTITUTED TETRACYCLIC COMPOUNDS AND METHODS OFUSE THEREOF FOR THE TREATMENT OF VIRAL DISEASES” (priority 2013, published 2016)
Where two headings read alike, the source gives them in different places.

What was measured:
Experiment in all cases: microbe, parasite or virus in culture
Format in all cases: cell-based, Hepatitis C virus (HCV)
Settings in all cases: Replicon Assay A
HCV replicon 1AY93H = test system: HCV replicon 1AY93H
In short: (§1)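 Read-out is replicon RNA per cell by real-time RT-PCR, normalised to cyclophilin mRNA amplified in the same well. Cells were exposed to compound for 3 days at 2000 cells/well in medium with 5% fetal bovine serum and 0.5% DMSO.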

HCV replicon 2B = test system: HCV replicon 2B
In short: as §1

HCV replicon 1A = test system: HCV replicon 1A
In short: as §1

[1] = read-out: 1A Y93H IC50, HCV replicon 1A Y93H
[2] = read-out: 2B IC50, HCV replicon 2B
[3] = Hepatitis C virus, read-out: 1A Y93H IC50, HCV replicon 1A Y93H
[4] = Hepatitis C virus, read-out: 2B IC50, HCV replicon 2B
[5] = Hepatitis C virus, HCV replicon 1A
[6] = read-out: 1A Y93H IC50, replicon 1AY93H

COC(=O)N[C@H](C(=O)N1CCC[C@H]1c1ncc(-c2cc(F)c3c(c2)OC(c2ccc(C(F)(F)F)s2)n2c-3cc3cc(-c4cnc([C@@H]5CCCN5C(=O)[C@@H](NC(=O)OC)C5CCOCC5)[nH]4)ccc32)[nH]1)C(C)C (single isomer, unassigned) [Compound 655]
IC50 (HCV replicon 1AY93H; [1]): 0.278 nM | IC50 (HCV replicon 2B; [2]): 0.24 nM | IC50 (HCV replicon 1A; HCV replicon 1A): 1.59 pM

COC(=O)N[C@H](C(=O)N1CCC[C@H]1c1ncc(-c2cc(F)c3c(c2)OC(c2scc4c2OCCO4)n2c-3cc3cc(-c4cnc([C@@H]5C[C@H](F)CN5C(=O)[C@@H](NC(=O)OC)C(C)C)[nH]4)ccc32)[nH]1)C(C)C (single isomer, unassigned) [Compound 526]
IC50 (HCV replicon 1AY93H; [3]): 4.79 nM | IC50 (HCV replicon 2B; [4]): 33.3 nM | IC50 (HCV replicon 1A; [5]): 7.76 pM

COC(=O)NC(C(=O)N1CCC[C@H]1c1ncc(-c2ccc3c(c2)cc2n3C(c3ccc(C4CC4)s3)Oc3cc(-c4cnc([C@@H]5CCCN5C(=O)[C@@H](NC(=O)OC)C(C)C)[nH]4)cc(F)c3-2)[nH]1)C1CCO[C@H](C)C1 (single isomer, unassigned) [Compound 141]
IC50 (HCV replicon 1AY93H; [6]): 12.8 nM | IC50 (HCV replicon 2B; read-out: 2B IC50, replicon 2B): 21.4 nM | IC50 (HCV replicon 1A; replicon 1A): 58.4 pM

CCN(CC)[C@@H](C(=O)N1C[C@H](F)C[C@H]1c1nc(-c2ccc3c(c2)OC(c2ccc(Cl)s2)n2c-3cc3cc(-c4c[nH]c([C@@H]5C[C@@H](F)CN5C(=O)[C@@H](c5ccccc5)N(CC)CC)n4)ccc32)c[nH]1)c1ccccc1 (mixture of isomers) [Compound 732]
IC50 (HCV replicon 1AY93H; [3]): 0.4 nM | IC50 (HCV replicon 2B; [4]): 12.5 nM | IC50 (HCV replicon 1A; [5]): 160 pM

CCc1ccc(C2Oc3cc(-c4cnc(C5CCCN5C(=O)C(NC(=O)OC)C5C[C@@H](C)O[C@@H](C)C5)[nH]4)ccc3-c3cc4c(F)c(-c5cnc([C@@H]6CCCN6C(=O)[C@@H](NC(=O)OC)C(C)C)[nH]5)ccc4n32)s1 (single isomer, unassigned) [Compound 358]
IC50 (HCV replicon 1AY93H; [6]): 2.62 nM | IC50 (HCV replicon 2B; read-out: 2B IC50, replicon 2B): 2.49 nM | IC50 (HCV replicon 1A; Hepatitis C virus, replicon 1A): 4.7 pM

COC(=O)N[C@H](C(=O)N1CCC[C@H]1c1ncc(-c2cc(F)c3c(c2)OC(c2ccc(C(=O)N(C)C)s2)n2c-3cc3cc(-c4cnc([C@@H]5CCCN5C(=O)[C@@H](NC(=O)OC)C(C)C)[nH]4)ccc32)[nH]1)C(C)C (single isomer, unassigned) [Compound 103]
IC50 (HCV replicon 1AY93H; [6]): 5.15 nM | IC50 (HCV replicon 2B; read-out: 2B IC50, replicon 2B): 1.71 nM | IC50 (HCV replicon 1A; Hepatitis C virus, replicon 1A): 5.6 pM

COC(=O)NC(C(=O)N1CCC[C@H]1c1ncc(-c2ccc3c(c2)cc2n3C(c3ccc(C4CC4)s3)Oc3cc(-c4cnc([C@@H]5CCCN5C(=O)[C@@H](NC(=O)OC)C(C)C)[nH]4)cc(F)c3-2)[nH]1)C1C[C@@H](C)O[C@H](C)C1 (single isomer, unassigned) [Compound 193]
IC50 (HCV replicon 1AY93H; [6]): 4.75 nM | IC50 (HCV replicon 2B; read-out: 2B IC50, replicon 2B): 18.6 nM | IC50 (HCV replicon 1A; replicon 1A): 25.6 pM

COC(=O)NC(C(=O)N1CCC[C@H]1c1ncc(-c2ccc3c(c2)cc2n3C(c3ccc(C(C)C)s3)Oc3cc(-c4cnc([C@@H]5CCCN5C(=O)[C@@H](NC(=O)OC)C(C)C)[nH]4)cc(F)c3-2)[nH]1)C1CCOC(C)(C)C1 (single isomer, unassigned) [Compound 237]
IC50 (HCV replicon 1AY93H; [6]): 0.21 nM | IC50 (HCV replicon 2B; read-out: 2B IC50, replicon 2B): 0.4 nM | IC50 (HCV replicon 1A; replicon 1A): 1.2 pM

COC(=O)N[C@H](C(=O)N1CCC[C@H]1c1nc(-c2ccc3c(c2)OC(c2ccc(C)s2)n2c-3cc3cc(-c4c[nH]c([C@@H]5NCCN5C(=O)[C@@H](NC(=O)OC)C(C)C)n4)ccc32)c[nH]1)C(C)C (single isomer, unassigned) [Compound 701]
IC50 (HCV replicon 1AY93H; [1]): 0.085 nM | IC50 (HCV replicon 2B; [2]): 0.15 nM | IC50 (HCV replicon 1A; HCV replicon 1A): 3 pM

COC(=O)N[C@H](C(=O)N1CCC[C@H]1c1ncc(-c2cc(F)c3c(c2)OC(c2cc(C)c(C)s2)n2c-3cc3cc(-c4cnc([C@@H]5C[C@@H](F)CN5C(=O)[C@@H](NC(=O)OC)C(C)C)[nH]4)ccc32)[nH]1)C(C)C (single isomer, unassigned) [Compound 516]
IC50 (HCV replicon 1AY93H; [1]): 0.0114 nM | IC50 (HCV replicon 2B; [2]): 5.2 nM | IC50 (HCV replicon 1A; HCV replicon 1A): 1.91 pM

COC(=O)N[C@H](C(=O)N1CCC[C@H]1c1ncc(-c2cc(F)c3c(c2)OC(c2sccc2C2CC2)n2c-3cc3cc(-c4cnc([C@@H]5CCCN5C(=O)[C@@H](NC(=O)OC)C(C)C)[nH]4)ccc32)[nH]1)C(C)C (single isomer, unassigned) [Compound 25]
IC50 (HCV replicon 1AY93H; Hepatitis C virus, read-out: 1A Y93H IC50 (nM), replicon 1AY93H): 14.4 nM | IC50 (HCV replicon 2B; Hepatitis C virus, read-out: 2B IC50 (nM), replicon 2B): 15.1 nM | IC50 (HCV replicon 1A; Hepatitis C virus, replicon 1A): 4.3 pM

COC(=O)NC(C(=O)N1CCC[C@H]1c1ncc(-c2ccc3c(c2)cc2n3C(c3ccc(C4CC4)s3)Oc3cc(-c4cnc([C@@H]5CCCN5C(=O)[C@@H](NC(=O)OC)C(C)C)[nH]4)cc(F)c3-2)[nH]1)C1CCO[C@@H](C)C1 (single isomer, unassigned) [Compound 354]
IC50 (HCV replicon 1AY93H; [6]): 0.38 nM | IC50 (HCV replicon 2B; read-out: 2B IC50, replicon 2B): 0.602 nM | IC50 (HCV replicon 1A; Hepatitis C virus, replicon 1A): 2 pM

COC(=O)N[C@H](C(=O)N1C[C@H](F)C[C@H]1c1nc(-c2ccc3c(c2)OC(c2ccc(C)s2)n2c-3cc3cc(-c4c[nH]c([C@@H]5C[C@H]6C[C@H]6N5C(=O)[C@@H](NC(=O)OC)C5CCOCC5)n4)ccc32)c[nH]1)C1CCOCC1 (single isomer, unassigned) [Compound 730]
IC50 (HCV replicon 1AY93H; [1]): 0.06 nM | IC50 (HCV replicon 2B; [2]): 0.13 nM | IC50 (HCV replicon 1A; HCV replicon 1A): 67 pM
